Values quoted from earlier work, collected in paper PMC5019575 (European journal of inorganic chemistry, 2015).

Tests used:
di-Fe^III-DF3 = molecular target: T1, di-Fe^III-DF3 (synthetic construct, UniProt Z9XD63LK24); assay: initial rates of oxidation, Lineweaver-Burk; format: biochemical; details: O2 (air), diferric protein, 100 mM HEPES/100 mM NaCl pH 7.0
T1 sequence (Z9XD63LK24 2-49): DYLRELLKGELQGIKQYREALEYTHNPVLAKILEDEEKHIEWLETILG

G4-DFtet = details: O2 (air), diiron protein, 100 mM HEPES/100 mM NaCl pH 7.0

In the case of `Nc1ccc(N)cc1` [PPD, p-phenylenediamine], the Km (di-Fe^III-DF3) is given as 8870 ± 2580 µM.
In the case of `Nc1ccc(O)cc1` [4-AP, 4-aminophenol], the Km (G4-DFtet) is listed as 830 ± 60 µM.
For `CC(C)(C)c1cc(O)c(O)c(C(C)(C)C)c1` [3,5-DTBC, 3,5-di-tert-butylcatechol], the Km (di-Fe^III-DF3) is given as 2090 ± 310 µM.
